Results published in PubChem BioAssay (NCI).
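Grown in 96-well plates, cells were treated for 48 hours with each compound at five concentrations. Insufficient inhibition: endpoint recorded as highest concentration tested. TGI is the concentration that stops growth completely.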

What was measured:
Assay in all cases: NCI-60 cell line screen, 48 h
A549 NSCLC = system: A549 NSCLC
ACHN renal = system: ACHN renal
CAKI-1 renal = system: CAKI-1 renal
HCC-2998 colon = system: HCC-2998 colon
HCT-15 colon = system: HCT-15 colon
HS 578T breast = system: HS 578T breast
HT29 colon = system: HT29 colon
IGROV1 ovarian = system: IGROV1 ovarian
KM12 colon = system: KM12 colon
LOX IMVI melanoma = system: LOX IMVI melanoma
M14 melanoma = system: M14 melanoma
MCF7 breast = system: MCF7 breast
MDA-MB-231 breast = system: MDA-MB-231 breast
NCI-H226 lung = system: NCI-H226 lung
NCI-H23 lung = system: NCI-H23 lung
OVCAR-8 ovarian = system: OVCAR-8 ovarian
SK-MEL-28 melanoma = system: SK-MEL-28 melanoma
SN12C renal = system: SN12C renal
SNB-19 CNS = system: SNB-19 CNS
SK-MEL-5 melanoma = system: SK-MEL-5 melanoma

| SMILES | TGI (A549 NSCLC) [µM] | TGI (ACHN renal) [µM] | TGI (CAKI-1 renal) [µM] | TGI (HCC-2998 colon) [µM] | TGI (HCT-15 colon) [µM] | TGI (HS 578T breast) [µM] | TGI (HT29 colon) [µM] | TGI (IGROV1 ovarian) [µM] | TGI (KM12 colon) [µM] | TGI (LOX IMVI melanoma) [µM] | TGI (M14 melanoma) [µM] | TGI (MCF7 breast) [µM] | TGI (MDA-MB-231 breast) [µM] | TGI (NCI-H226 lung) [µM] | TGI (NCI-H23 lung) [µM] | TGI (OVCAR-8 ovarian) [µM] | TGI (SK-MEL-28 melanoma) [µM] | TGI (SN12C renal) [µM] | TGI (SNB-19 CNS) [µM] | TGI (SK-MEL-5 melanoma) [µM] |
| --- | --- | --- | --- | --- | --- | --- | --- | --- | --- | --- | --- | --- | --- | --- | --- | --- | --- | --- | --- | --- |
| O=C1C=C(Sc2ccccc2)c2nccc3c2c1nc1ccccc13 | > 100 | 54.8 | > 100 | 37.8 | 26 | 46.5 | 26.8 | 23.9 | 51.6 | 28.6 | 31.7 | 28.7 | 38 | > 100 | 73.2 | 37.6 | 38.8 | 32.2 | > 100 |  |
| NC(=S)N/N=C(\Cc1nc2ccc(Cl)cc2[nH]c1=O)C(=O)Nc1ccc(Cl)cc1 | > 100 | > 100 | > 100 | > 100 | > 100 | > 100 | > 100 | > 100 | > 100 | > 100 | > 100 | > 100 | > 100 | > 100 | > 100 | > 100 | > 100 | > 100 | > 100 | > 100 |
| Oc1ccccc1/C=N/Nc1nc(N/N=C/c2ccccc2O)nc(N/N=C/c2ccccc2O)n1 | > 100 | > 100 | > 100 | > 100 | > 100 | > 100 | > 100 | > 100 | > 100 | > 100 | > 100 | > 100 | > 100 | > 100 | > 100 | > 100 | > 100 | > 100 | > 100 | > 100 |
| O=C1c2ccccc2C(=O)[C@@]23O[C@@]12C1(Oc2cccc4cccc(c24)O1)[C@@H]1O[C@@H]1[C@@H]3O | > 49 | 27.7 | 24.5 | 22 | 17.6 | 51.8 | 15.2 | 27.4 | 27.3 | 16.5 | 23.4 | 14.6 | 41.1 | 28.9 | 29.6 | 12.8 | > 54.1 | 26.1 | 28.8 | > 64.3 |
| COc1c(C)c2c(c(=O)c3c(C)cccc3n2C)c2c1c(=O)c1c(C)cccc1n2C | > 10 | > 10 | > 10 | > 10 | > 10 | > 10 | > 10 | > 10 | > 10 | > 10 | > 10 | > 10 | > 10 | > 10 | > 10 | > 10 | > 10 | > 10 | > 10 | > 10 |
